# According to ChEMBL document CHEMBL1909508, “Structure-activity relationship study of arylsulfonylimidazolidinones as anticancer agents” (Bioorg Med Chem Lett, 2011):
# Legend:
# [1] = Inhibition of tubulin polymerization
# A549 = assay: Cytotoxicity against human A549 cells by MTT assay; format: functional, cell-based
# HCT-116 = assay: Cytotoxicity against human HCT116 cells by MTT assay; format: functional, cell-based
# NCI-H460 = assay: Cytotoxicity against human NCI-H460 cells by MTT assay; format: functional, cell-based
SMILES,IC50 [1],IC50 (A549),IC50 (HCT-116),IC50 (NCI-H460)
CCOC(=O)Nc1ccc(S(=O)(=O)N2C[C@H](c3ccccc3)NC2=O)cc1C,6 µM,0.05 µM,0.07 µM,0.07 µM
CCOC(=O)Nc1ccc(S(=O)(=O)N2C[C@H](c3ccccc3)NC2=O)cc1CC,,0.06 µM,0.07 µM,0.07 µM
CCOC(=O)Nc1ccc(S(=O)(=O)N2C[C@H](c3ccccc3)NC2=O)cc1F,,3.8 µM,5 µM,4.5 µM
CCOC(=O)Nc1ccc(S(=O)(=O)N2C[C@H](c3ccccc3)NC2=O)cc1Cl,,0.02 µM,0.2 µM,0.02 µM
CCc1cc(S(=O)(=O)N2C[C@H](c3ccccc3)NC2=O)ccc1NC(=O)OC,,0.25 µM,0.2 µM,0.3 µM
CCCOC(=O)Nc1ccc(S(=O)(=O)N2C[C@H](c3ccccc3)NC2=O)cc1CC,,0.06 µM,0.06 µM,0.06 µM
CCc1cc(S(=O)(=O)N2C[C@H](c3ccccc3)NC2=O)ccc1NC(=O)OC(C)C,,0.06 µM,0.06 µM,0.06 µM
CCCCOC(=O)Nc1ccc(S(=O)(=O)N2C[C@H](c3ccccc3)NC2=O)cc1CC,,0.2 µM,0.2 µM,0.2 µM
CCc1cc(S(=O)(=O)N2C[C@H](c3ccccc3)NC2=O)ccc1NC(=O)OCC(C)C,,0.07 µM,0.06 µM,0.08 µM
CCc1cc(S(=O)(=O)N2C[C@H](c3ccccc3)NC2=O)ccc1NC(=O)NC(C)C,,0.1 µM,0.06 µM,0.07 µM
CCc1cc(S(=O)(=O)N2C[C@H](c3ccccc3)NC2=O)ccc1NC(=O)NC1CCCCC1,,0.5 µM,0.3 µM,0.3 µM
CCc1cc(S(=O)(=O)N2C[C@H](c3ccccc3)NC2=O)ccc1NC(=O)c1ccc([N+](=O)[O-])cc1,,0.7 µM,0.5 µM,0.8 µM
CCc1cc(S(=O)(=O)N2C[C@H](c3ccccc3)NC2=O)ccc1NC(=O)c1ccc(N)cc1,,0.22 µM,0.46 µM,0.67 µM
CCOC(=O)Nc1ccc(S(=O)(=O)N2C[C@H](c3ccccc3)NC2=O)c(C)c1C,,0.3 µM,0.35 µM,0.3 µM
CCOC(=O)Nc1c(C)cc(S(=O)(=O)N2C[C@H](c3ccccc3)NC2=O)cc1C,,> 10 µM,> 10 µM,> 10 µM
CCOC(=O)Nc1ccc(S(=O)(=O)N2C(=O)N[C@@H](c3ccccc3)C2C)cc1C (some centres not stated),,5 µM,5.5 µM,5 µM
CCOC(=O)Nc1ccc(S(=O)(=O)N2C(=O)N[C@@H](c3ccccc3)C2C)cc1Cl (some centres not stated),,6 µM,5.5 µM,6 µM
Cc1cc(S(=O)(=O)N2C(=O)N[C@@H](c3ccccc3)C2C)ccc1NC(=O)c1ccc([N+](=O)[O-])cc1 (some centres not stated),,> 10 µM,> 10 µM,> 10 µM
Cc1cc(S(=O)(=O)N2C(=O)N[C@@H](c3ccccc3)C2C)ccc1NC(=O)c1ccc(N)cc1 (some centres not stated),,> 10 µM,> 10 µM,> 10 µM
CC1[C@H](c2ccccc2)NC(=O)N1S(=O)(=O)c1ccc(NC(=O)c2ccc([N+](=O)[O-])cc2)c(Cl)c1 (some centres not stated),,> 10 µM,> 10 µM,> 10 µM
CC1[C@H](c2ccccc2)NC(=O)N1S(=O)(=O)c1ccc(NC(=O)c2ccc(N)cc2)c(Cl)c1 (some centres not stated),,> 10 µM,> 10 µM,> 10 µM
Nc1ccc(C(=O)Nc2ccc(S(=O)(=O)N3C[C@H](c4ccccc4)NC3=O)cc2Cl)cc1,5.5 µM,,,
COc1cccc2c1C(=O)c1c(O)c3c(c(O)c1C2=O)C[C@@](O)(C(=O)CO)C[C@@H]3O[C@H]1C[C@H](N)[C@H](O)[C@H](C)O1 [DOXORUBICIN],,,0.4 µM,0.456 µM
